Source: ChEMBL document CHEMBL3414440, “Pure enantiomers of benzoylamino-tranylcypromine: LSD1 inhibition, gene modulation in human leukemia cells and effects on clonogenic potential of murine promyelocytic blasts” (Eur J Med Chem, 2015)

Experiments:
[1] = biological target: T1, Amine oxidase [flavin-containing] A (Homo sapiens, UniProt P21397)
T1 sequence (P21397 whole entry): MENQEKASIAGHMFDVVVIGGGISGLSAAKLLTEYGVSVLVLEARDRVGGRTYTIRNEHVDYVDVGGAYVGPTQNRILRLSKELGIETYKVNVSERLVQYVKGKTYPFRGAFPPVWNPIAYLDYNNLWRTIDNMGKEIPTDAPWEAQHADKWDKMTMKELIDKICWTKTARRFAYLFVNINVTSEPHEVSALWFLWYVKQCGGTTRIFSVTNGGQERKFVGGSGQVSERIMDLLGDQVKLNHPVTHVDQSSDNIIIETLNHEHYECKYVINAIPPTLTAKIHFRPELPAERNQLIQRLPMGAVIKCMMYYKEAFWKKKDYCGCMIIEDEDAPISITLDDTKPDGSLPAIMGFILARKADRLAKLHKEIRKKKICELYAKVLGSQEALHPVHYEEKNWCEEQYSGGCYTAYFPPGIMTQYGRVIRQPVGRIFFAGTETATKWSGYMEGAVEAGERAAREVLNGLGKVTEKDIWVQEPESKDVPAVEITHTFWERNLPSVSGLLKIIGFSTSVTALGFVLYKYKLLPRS
Description: Inhibition of human recombinant MAOA expressed in Pichia pastoris incubated for 15 mins prior to substrate addition measured after 30 mins by luminescence assay

[2] = biological target: T2, MAO-B (amine oxidase [flavin-containing] B) (Homo sapiens, UniProt P27338); test: Inhibition of human recombinant MAOB expressed in Pichia pastoris at 100 uM incubated for 15 mins prior to substrate addition measured after 30 mins by luminescence assay
T2 sequence (P27338 whole entry): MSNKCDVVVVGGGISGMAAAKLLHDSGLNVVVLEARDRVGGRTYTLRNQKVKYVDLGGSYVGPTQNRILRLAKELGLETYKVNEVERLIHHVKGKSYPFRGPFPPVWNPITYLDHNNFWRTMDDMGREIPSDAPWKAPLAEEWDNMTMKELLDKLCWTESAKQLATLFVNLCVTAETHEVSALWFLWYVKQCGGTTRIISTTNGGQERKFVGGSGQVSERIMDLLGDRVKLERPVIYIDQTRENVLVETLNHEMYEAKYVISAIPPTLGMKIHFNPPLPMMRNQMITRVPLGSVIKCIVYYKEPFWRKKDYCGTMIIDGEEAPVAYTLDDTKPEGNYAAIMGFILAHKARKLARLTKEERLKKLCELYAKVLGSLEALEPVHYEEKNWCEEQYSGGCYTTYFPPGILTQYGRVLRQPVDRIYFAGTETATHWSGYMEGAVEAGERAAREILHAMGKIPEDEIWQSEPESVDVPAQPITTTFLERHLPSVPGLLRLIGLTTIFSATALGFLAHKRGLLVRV

cells = settings: Mus musculus, Leukemia cell, read-out: INH
Description: Inhibition of colony formation in mouse acute myeloid Leukemia cell assessed as colony forming unit at 0.25 uM after 7 days relative to control

[3] = biological target: T3, Amine oxidase [flavin-containing] B (Homo sapiens, UniProt P27338)
T3 sequence (P27338 whole entry): T2 sequence (P27338 whole entry)
Description: Inhibition of human recombinant MAOB expressed in Pichia pastoris incubated for 15 mins prior to substrate addition measured after 30 mins by luminescence assay

| Compound | IC50 [1] [µM] | inhibition at 0.5 h, 100 µM [2] [%] | inhibition at […] (cells) [%] | IC50 [3] [µM] |
| --- | --- | --- | --- | --- |
| N[C@H]1C[C@@H]1c1cccc(NC(=O)c2ccccc2)c1 | 1.37 | 29 |  |  |
| N[C@H]1C[C@@H]1c1ccc(NC(=O)c2ccccc2)cc1 |  |  | 64 |  |
| N[C@@H]1C[C@H]1c1cccc(NC(=O)c2ccccc2)c1 | 1.54 |  |  | 84.7 |
| N[C@@H]1C[C@@H]1c1cccc(NC(=O)c2ccccc2)c1 | 0.65 | 34 |  |  |
| N[C@@H]1C[C@@H]1c1ccc(NC(=O)c2ccccc2)cc1 |  |  | 72 |  |
| N[C@@H]1C[C@H]1c1ccc(NC(=O)c2ccccc2)cc1 |  |  | 83.4 |  |
| N[C@H]1C[C@H]1c1ccc(NC(=O)c2ccccc2)cc1 |  |  | 83.8 |  |
| N[C@H]1C[C@H]1c1cccc(NC(=O)c2ccccc2)c1 | 0.07 |  |  | 80.1 |
